In one experiment the test system is AEP. Nature of the experiment: Hydrolysis of asparagine peptide substrate by B cell lysosomal fractions. It is filed as biochemical, human. As to conditions: increasing concentrations of peptide, Fig 3b. On the procedure: The invention will now be described by reference to the following Examples and Figures wherein • Figure 1: Processing of TTCF by a leupeptin-insensitive cysteine endopeptidase activity. (a) TTCF was digested in vitro in the presence of disrupted lysosomes (1-2 µg) in the presence or absence of iodoacetamide (1 mM), leupeptin, E64 or pepstatin (each at 0.1 mg/ml). Digestions were in 0.1 M NH4 acetate at pH 4.5 or Na2HPO4, pH 6.0 or 7.0. After 4 hours at 37°C, the reactions were separated by Tris-tricine SDS-PAGE and stained with Coomassie Blue. (b) Cleavage sites: TTCF digestion products were separated by SDS PAGE and electrophoretically transferred to nitrocellulose membrane. Individual fragments numbered 1-6 were subjected to 5 cycles of Edman degradation. N-terminal sequence obtained is shown in bold following upstream residues from TTCF (tetanus toxin numbering). […] (c) Each fraction was analysed by SDS-PAGE and Western blotting. […] Release of 7-amino-4-methyl coumarin was measured after 10, 20 or 30 minutes. […] At different times the cells were washed, fixed in 0.05 % glutaraldehyde and antigen presentation measured using proliferation of different autologous TTCF-specific T cell clones. c, AEP pre-processing of TTCF speeds antigen presentation. […] Presentation was measured after 60 minutes of antigen pulsing using EBV B cells. […]

Experiment [1] concerns purified AEP (legumain from pig kidney). Nature of the experiment: Digestion of TTCF with purified AEP in the presence of tetrapeptides. It is filed as biochemical. To be noted: 0.2 mg/ml peptide; Fig 3a. On the procedure: The invention will now be described by reference to the following Examples and Figures wherein • Figure 1: Processing of TTCF by a leupeptin-insensitive cysteine endopeptidase activity. (a) TTCF was digested in vitro in the presence of disrupted lysosomes (1-2 µg) in the presence or absence of iodoacetamide (1 mM), leupeptin, E64 or pepstatin (each at 0.1 mg/ml). Digestions were in 0.1 M NH4 acetate at pH 4.5 or Na2HPO4, pH 6.0 or 7.0. After 4 hours at 37°C, the reactions were separated by Tris-tricine SDS-PAGE and stained with Coomassie Blue. (b) Cleavage sites: TTCF digestion products were separated by SDS PAGE and electrophoretically transferred to nitrocellulose membrane. Individual fragments numbered 1-6 were subjected to 5 cycles of Edman degradation. N-terminal sequence obtained is shown in bold following upstream residues from TTCF (tetanus toxin numbering). The N-terminal sequence of His-tagged TTCF was obtained for fragments 1 and 3. (c) Residues Asn 1184 and Glu 1184 in TTCF were mutated to alanine (see Methods) and digestions performed as before. The mutation abolishes cleavage at the mutated site but not at the first site (doublet at 47 kD). In this experiment cleavage of the third site was minimal. • Figure 2: TTCF is processed by an asparaginyl endopeptidase. (a) Chromatography of the TTCF processing activity on Mono-S resin. Fractions eluted by NaCl gradient were incubated with the substrates Z-Ala-Ala-Asn-NHMec or Z-Phe-Arg-NHMec in the presence or absence of E64 (trans-epoxysuccinyl-L-leucylamido-(4-guanidino)butane). […] (b) Fractions as above were incubated with 10 µg TTCF in the presence or absence of E64 for 4 hours at 37°C prior to SDS-PAGE analysis. (c) Each fraction was analysed by SDS-PAGE and Western blotting. Electrophoretically transferred material was probed with an affinity purified antiserum raised against the peptide KGIGSGKVLKSGPQC from human legumain^1. • Figure 3: Peptide inhibitors of AEP block asparaginyl endopeptidase activity and TTCF processing in vitro and in vivo. […] Release of 7-amino-4-methyl coumarin was measured after 10, 20 or 30 minutes. […] At different times the cells were washed, fixed in 0.05 % glutaraldehyde and antigen presentation measured using proliferation of different autologous TTCF-specific T cell clones. c, AEP pre-processing of TTCF speeds antigen presentation. […] Presentation was measured after 60 minutes of antigen pulsing using EBV B cells.
We decided to test the possibility that high concentrations of asparagine containing peptides might act as competitive inhibitors. […] To establish that inhibition of AEP was specific, we measured the hydrolysis of different synthetic peptide substrates in the presence and absence of these tetrapeptides.

Residues, ends and D or L forms follow the SMILES beside them. *: point of attachment. Fmoc = O=C(OCC1c2ccccc2-c2ccccc21)*

Turning to `C[C@H](NC(=O)OCC1c2ccccc2-c2ccccc21)C(=O)N[C@@H](CCC(=O)O)C(=O)N[C@@H](CC(N)=O)C(=O)N[C@@H](CCCCN)C(N)=O` [AENK, Ala-Glu-Asn-Lys-NH] (Fmoc-AENK-NH2), in the experiment on AEP, the “cleavage of Z-Val-Ala-Asn-NHMec” value is “completely blocked”. Further, the “inhibition of processing of TTCF by AEP” value in experiment [1] is “substantially inhibited”.

The values above are taken from patent EP1066315B1 (University of Dundee, priority 1998, dated 2008).
